How the values were obtained:
Format in all cases: cell-based
human V2R = human V2R (Homo sapiens (Human), UniProt P30518); experiment: Inhibition activity on human V2R (cAMP HTRF assay, HEK293/human V2R pool cells); settings: vasopressin
Method: The inhibition effect of the compounds of the present invention on the activity of human V2R protein expressed in HEK293/human V2R cells was determined by the following experimental method:
The pcDNA3.1-V2R plasmid was transferred into HEK293 cells with the Lipofectamine® 3000 transfection reagent; G418 was added on the next day, and the HEK293/human V2R pool cell lines were obtained.
HEK293/human V2R pool cells were dissociated with the cell dissociation solution (enzyme-free), thereby dissociating the cells from the cell culture dish into individual cells. Then the cell solution was blown well, and centrifuged to remove the supernatant. The cells were resuspended in the test buffer 1 (1×HBSS+20 mM HEPES+0.1% BSA) and counted. The cell density was adjusted to 1250 cells/5 μl, i.e., 2.5*10^5/ml.
The compounds were formulated into a series of concentrations of 20 mM, 6.67 mM, 2.22 mM, 0.74 mM, 0.25 mM, 0.08 mM, 27.4 μM, 9.14 μM, 3.05 μM, 1.02 μM, 0.34 μM and 0 μM (DMSO) with pure DMSO. The compounds were then diluted into a 4-fold working concentration solution with the test buffer 2 (test buffer 1+1 mM IBMX).
Agonist: 460 μM vasopressin was used as the mother liquor, which was formulated at 2 μM with DMSO, and then diluted to 0.5 nM with the test buffer 2.
Standards: The first point was 20 μl of a stock solution (2848 nM), which was diluted successively to a total of eleven concentrations in a 4-fold concentration gradient with the test buffer 1 from the second point.
1. The well-mixed cells were added to a 384-well plate (5 μl/well) without changing the tip.
2. The test compounds and positive compound formulated were added (2.5 μl/well), and the tips were changed.
3. The plate was centrifuged at 1000 rpm for 1 min, shaken for 30 sec to mix well, and incubated at room temperature for 30 min.
4. The standard curve wells were added with the test buffer 2 (5 μl/well).
5. The formulated agonist was added (2.5 μl/well), and the tips were changed; the plate was centrifuged at 1000 rpm for 1 min, shaken for 30 sec to mix well, and incubated at room temperature for 30 min.
6. cAMP-d2 (a component in the cAMP dynamic 2 kit) and Anti-cAMP-Eu-Cryptate (a component in the cAMP dynamic 2 kit) were formulated in the dark, which were then mixed well with cAMP lysate (a component in the cAMP dynamic 2 kit) in a ratio of 1:4. Each well was added with the formulated cAMP-d2 solution (5 μl/well), followed by addition of Anti-cAMP-Eu-Cryptate (5 μl/well). The plate was shaken for 30 sec to mix well, and incubated in the dark at room temperature for 1 h.
The HTRF Signals were Read by the PheraStar Multi-Function Microplate Reader.
The data in this test was processed using the data processing software Graphpad Prism.
The inhibition activity of the compounds of the present invention on human V2R was determined by the above test, and the IC50 values obtained are shown in Table 4.

human OTR = human OTR (Homo sapiens, UniProt P30559); experiment: Inhibition activity on human OTR (Fluo-4 calcium assay, HEK293/human OTR stably transfected cells); settings: oxytocin 3 nM
Summary of the method: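 HEK293 cells stably expressing human OTR, loaded with Fluo-4 for 30 min at 37 °C, were preincubated 10 min at room temperature with compound (stocks 10^1–10^6 nM). Oxytocin (3 nM as added) then triggered calcium signal, read immediately at 494/516; IC50 fitted from fluorescence versus concentration.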

human V1aR = human V1aR (Homo sapiens (Human), UniProt P37288); experiment: Inhibition activity on human V1aR (Fluo-4 calcium assay, HEK293/human V1aR stably transfected cells); settings: vasopressin 3 nM
Sequence of human V1aR (P37288 whole entry): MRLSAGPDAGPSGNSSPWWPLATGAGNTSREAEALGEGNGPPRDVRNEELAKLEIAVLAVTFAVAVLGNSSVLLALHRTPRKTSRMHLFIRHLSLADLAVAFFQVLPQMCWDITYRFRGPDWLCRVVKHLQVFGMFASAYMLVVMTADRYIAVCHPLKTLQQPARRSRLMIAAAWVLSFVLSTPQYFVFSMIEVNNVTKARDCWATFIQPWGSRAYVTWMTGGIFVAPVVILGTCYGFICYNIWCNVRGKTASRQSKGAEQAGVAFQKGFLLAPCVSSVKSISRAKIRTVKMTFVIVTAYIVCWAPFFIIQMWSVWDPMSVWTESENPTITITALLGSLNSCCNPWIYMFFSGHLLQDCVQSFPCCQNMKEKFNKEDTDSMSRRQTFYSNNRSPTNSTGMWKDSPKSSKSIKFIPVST
Summary of the method: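 Stable HEK293/human V1aR cells, 25,000 cells/well, loaded with Fluo-4 for 30 minutes at 37° C. then 10 minutes room temperature; compounds (formulated at 10^1–10^6 nM) added 10 minutes before 3 nM vasopressin. Calcium fluorescence read immediately at 494/516; IC50 from concentration–signal curves.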

Sequence of human V2R (P30518 whole entry): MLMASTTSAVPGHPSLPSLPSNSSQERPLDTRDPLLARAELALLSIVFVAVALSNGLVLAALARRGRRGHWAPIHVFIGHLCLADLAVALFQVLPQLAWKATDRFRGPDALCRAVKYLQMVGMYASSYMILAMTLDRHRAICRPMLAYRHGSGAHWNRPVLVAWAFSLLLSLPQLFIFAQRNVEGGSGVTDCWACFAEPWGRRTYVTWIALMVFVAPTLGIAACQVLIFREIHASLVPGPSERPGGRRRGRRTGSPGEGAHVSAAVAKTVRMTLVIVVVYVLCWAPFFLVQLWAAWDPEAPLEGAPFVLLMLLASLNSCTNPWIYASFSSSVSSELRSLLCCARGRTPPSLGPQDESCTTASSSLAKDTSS

IC50 (human V2R) [µM]	IC50 (human OTR) [µM]	IC50 (human V1aR) [µM]	SMILES
4.9	0.002	4.5	COCc1nnc(N2CC(c3cccc4cc(F)ccc34)C2)n1-c1ccc(OC)nc1 [Example 2, 5-(3-(3-(6-Fluoronaphthalen-1-yl)azetidin-1-yl)-5-(methoxymethyl)-4H-1,2,4-triazol-4-yl)-2-methoxypyridine]
10.9	0.064	4.4	COCc1nnc(N2CC(n3cc(C)c4cc(F)ccc43)C2)n1-c1ccc(OC)nc1 [Example 17, 5-Fluoro-1-(1-(5-(methoxymethyl)-4-(6-methoxypyridin-3-yl)-4H-1,2,4-triazol-3-yl)azetidin-3-yl)-3-methyl-1H-indole]
